Data published in patent publication US20040072882A1 (priority 2002, published 2004).
“Also recorded” adds a separate entry of the source. Where two headings read alike, the source gives them in different places.

Experiments:
[1] = paclitaxel comparison value; cited from earlier work
[2] = tested on: microtubules in interphase cells (PBMC's); experiment: Microtubule bundle formation in mononuclear cells (PBMC's) isolated from treated patients, immunofluorescence; format: in vivo, human
Description: The activity of the drug can be assessed by measuring bundling of microtubules in interphase cells. This is considered the hallmark of activity of microtubule-stabilizing agents such as paclitaxel. The bundle formation can readily be measured by immunofluorescence or Western blotting. In a typical determination, whole blood is collected from patients and mononuclear cells (PBMC's) are isolated for evaluation of bundle formation.
In addition to monitoring toxicity and pharmacokinetics, the pharmacodynamics of treatment was also monitored. The standard criterion is the ability of the drug to effect bundling of microtubules in interphase cells. Whole blood was collected from patients and mononuclear cells (PBMC's) were isolated. To measure bundle formation, the PBMC's were resuspended in 5% FBS/PBS containing 0.75×10^6 cells/mL and used to make cytospin preparations. The cells were then fixed in 100% methanol for 10 minutes at […], air dried and stored at 4° C. prior to immunostaining. For immunostaining, the cells were blocked in 10% Normal Goat Serum in PBS for 20 minutes and incubated with a 1:100 dilution of {tilde over (□)}tubulin monoclonal antibody diluted in 5% Normal Goat Serum in PBS for 1 hour at 37° C. The slides were then rinsed in PBS and incubated with 1:200 Cy3-conjugated goat anti-mouse IgG for 1 hour in the dark before mounting. Cell numbers were quantified using a Zeiss AXIOSCOP microscope and evaluated at levels of 500 cells per slide by individual investigators.

[3] = Toxicity monitoring in the patient study; format: in vivo, human
Description: In order to ensure that toxic limits are not exceeded, the effects of the administration on the subject are monitored. Possible effects include neurological impairment(s), which may manifest itself as cognitive/perceptual abnormalities, numbness in the limbs, difficulty in walking, dizziness, and the like. […] Other side effects may include nausea and vomiting, fatigue, rash, alopecia, and alteration in vital signs such as orthostatic hypotension.
H1/H2 blockers were given orally to the subjects 30-60 minutes prior to infusion to prevent any adverse reactions to the CREMOPHOR® in the composition. […] The patients were monitored by testing CBC with differential weekly, various laboratory tests every three weeks, and physical exams including neurological assessment every three weeks. Tumor assessments were made every six weeks.

[4] = Pharmacokinetics of epothilone D in patients (plasma levels by LC/MS/MS after intravenous infusion); format: in vivo, human
Protocol: (§1) H1/H2 blockers were given orally to the subjects 30-60 minutes prior to infusion to prevent any adverse reactions to the CREMOPHOR® in the composition. […] Thus, a dosage of 9 mg/m^2 required about 10-15 minutes of infusing, while a dose of 150 mg/m^2 required 3-4 hours of dosing. The patients were monitored by testing CBC with differential weekly, various laboratory tests every three weeks, and physical exams including neurological assessment every three weeks. Tumor assessments were made every six weeks.
Both the pharmacokinetics and pharmacodynamics of epothilone D were measured in the subjects. Plasma concentration as a function of time was measured in the first- and second cycles at various dose levels in several subjects.
As would be expected, the levels at the end of infusion are high and taper off gradually, and the concentration levels at any particular time are dose-dependent.

[5] = tested on: advanced malignancy, either primary or metastatic; experiment: Tumor assessment / tumor markers in patients with advanced malignancy; format: in vivo, human
Description: Other criteria included adequate liver, renal and hematopoietic function, i.e., recovery from reversible effects of previous therapies, if any. Subjects included in the study provided their informed consent.
Approximately 52 patients meeting the above-described criteria were enrolled in the study. Of the patients treated, approximately 60% were male and 40% female, ranging in age from 23 to 85 years. A wide range of tumor types were included in the study, including colon, ovarian, prostate, and lung tumors. Most of the enrollees had received multiple rounds of other chemotherapies prior to entering the study.
as §1

| Compound | volume of distribution (Vz) [1] [L/m^2] | percentage of PBMCs with microtubule bundles ([2]; dosage 18 mg/m^2) [%] | percentage of PBMCs with microtubule bundles ([2]; dosage 120 mg/m^2) [%] | bundle formation at low dosage ([2]; dosage as low as 18 mg/m^2) | time of toxicity ([3]; dose level between 9 mg and about 60 mg per m^2) | severity of toxicities ([3]; dose-dependent toxicities) | onset of toxicity ([3]; higher dosages such as 90 mg/m^2 and […]^2) | myelosuppression ([3]; human, in vivo) | dependence of the area under the curve (AUC) on dosage ([4]; dose range about 9 mg/m^2 to about 150 mg/m^2, first and second cycles) | half-life ([4]; human, in vivo, intravenous infusion, summary over study, read-out: half-life, mean value) [h] | clearance ([4]; human, in vivo, patients treated at 100 mg/m^2, averaged, read-out: Drug clearance (converted)) [mL/min] | half-life ([4]; human, in vivo, patients treated at 100 mg/m^2, averaged, read-out: elimination half-life (converted)) [h] | Vd ([4]; human, in vivo, patients treated at 100 mg/m^2, averaged, read-out: volume of distribution (Vz)) [L] | difference in pharmacokinetics between cycles ([4]; two cycles, three subjects at 60 mg/m^2) | disease status in patients receiving multiple cycles (at least four months) ([5]; human, in vivo) | tumor markers ([5]; ovarian, pancreatic, testicular, breast, and biliary diseases) |
| --- | --- | --- | --- | --- | --- | --- | --- | --- | --- | --- | --- | --- | --- | --- | --- | --- |
| CC(=O)O[C@H]1C(=O)[C@@]2(C)[C@H]([C@H](OC(=O)c3ccccc3)[C@]3(O)C[C@H](OC(=O)[C@H](O)[C@@H](NC(=O)c4ccccc4)c4ccccc4)C(C)=C1C3(C)C)[C@]1(OC(C)=O)CO[C@@H]1C[C@@H]2O [paclitaxel] | 140±70 | – | – | – | – | – | – | – | – | – | – | – | – | – | – | – |
| C/C1=C/C[C@@H](/C(C)=C/c2csc(C)n2)OC(=O)C[C@H](O)C(C)(C)C(=O)[C@H](C)[C@@H](O)[C@@H](C)CCC1 [epothilone D, Desoxyepothilone B] | – | 12 | 55 | Substantial amounts of bundle formation | start at day five and continue to day 15 | generally of Grade-2 in severity | as soon as the day after infusion is terminated | generally not been seen; also recorded: No clear evidence of myelosuppression was observed | linear correlation | 8 to 10 | 315 | 8.8 ± 2.4 | 232 ± 82 | no discernable difference | suggestive of stable disease | Tumor marker reductions were observed |
